In the supplement of paper PMC8671470:

Tests used:
Conditions in all cases: 72 h
BV-173 [1] = test system: BV-173
Outline: (§1)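 Fifteen myeloid leukaemia lines in RPMI 1640 were treated for 72 h at 37 °C and 5% CO2 with five tenfold doses from 1 to 10,000 nM, in duplicate. ATP luminescence was normalised to vehicle and to a positive control at 10 µM, then fitted with a four-parameter log-logistic model. The IC50 came from these fits.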

HEL [2] = test system: HEL
Outline: as §1

HL-60 [3] = test system: HL-60
Outline: as §1

K-562 [4] = test system: K-562
Outline: as §1

KCL-22 [5] = test system: KCL-22
Outline: as §1

KG-1 [6] = test system: KG-1
Outline: as §1

KU-812 [7] = test system: KU-812
Outline: as §1

LAMA-84 [8] = test system: LAMA-84
Outline: as §1

ML-2 [9] = test system: ML-2
Outline: as §1

MOLM-13 [10] = test system: MOLM-13
Outline: as §1

MV4-11 [11] = test system: MV4-11
Outline: as §1

Mono-Mac-6 [12] = test system: Mono-Mac-6
Outline: as §1

NOMO-1 [13] = test system: NOMO-1
Outline: as §1

SHI-1 [14] = test system: SHI-1
Outline: as §1

THP-1 [15] = test system: THP-1
Outline: as §1

BV-173 [16] = experiment: cell viability (% survival relative to DMSO control, bortezomib = 0%); higher = less cytotoxic
Outline: (§2)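 Reported values are percent survival from duplicate wells, averaged. Fifteen myeloid leukaemia cell lines were treated in 384-well plates with compounds at 1, 10, 100, 1000 or 10000 nM for 72 h at 37 °C in 5% CO2. Signals from CellTiter-Glo luminescence were scaled with vehicle as 100% and a 10 µM positive control as 0%.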

HEL [17] = experiment: as above
Outline: as §2

HL-60 [18] = experiment: as above
Outline: as §2

K-562 [19] = experiment: as above
Outline: as §2

KCL-22 [20] = experiment: as above
Outline: as §2

KG-1 [21] = experiment: as above
Outline: as §2

KU-812 [22] = experiment: as above
Outline: as §2

LAMA-84 [23] = experiment: as above
Outline: as §2

ML-2 [24] = experiment: as above
Outline: as §2

MOLM-13 [25] = experiment: as above
Outline: as §2

MV4-11 [26] = experiment: as above
Outline: as §2

Mono-Mac-6 [27] = experiment: as above
Outline: as §2

NOMO-1 [28] = experiment: as above
Outline: as §2

SHI-1 [29] = experiment: as above
Outline: as §2

THP-1 [30] = experiment: as above
Outline: as §2

Cc1nc(-c2ccc(OCC(C)C)c(C#N)c2)sc1C(=O)O [Febuxostat]
Conditions | IC50 (cell viability) [µM]
BV-173 [1] | > 10
HEL [2] | > 10
HL-60 [3] | > 10
K-562 [4] | > 10
KCL-22 [5] | > 10
KG-1 [6] | > 10
KU-812 [7] | > 10
LAMA-84 [8] | > 10
ML-2 [9] | > 10
MOLM-13 [10] | > 10
MV4-11 [11] | > 10
Mono-Mac-6 [12] | > 10
NOMO-1 [13] | > 10
SHI-1 [14] | > 10
THP-1 [15] | > 10

cell viability [%]
Conditions | 1 nM | 10 nM | 100 nM | 1000 nM | 10000 nM
BV-173 [16] | 103 | 101 | 79.9 | 99.7 | 82.6
HEL [17] | 97 | 97.8 | 106 | 105 | 84.5
HL-60 [18] | 103 | 85.2 | 114 | 91.3 | 99.3
K-562 [19] | 100 | 91.3 | 84.2 | 113 | 87.7
KCL-22 [20] | 92.5 | 103 | 98 | 104 | 80.1
KG-1 [21] | 102 | 97.5 | 103 | 94.6 | 90.4
KU-812 [22] | 101 | 97.3 | 94 | 98.4 | 83.9
LAMA-84 [23] | 102 | 95.7 | 92.4 | 105 | 101
ML-2 [24] | 94 | 96 | 100 | 90.2 | 86.8
MOLM-13 [25] | 90.6 | 102 | 141 | 103 | 94.9
MV4-11 [26] | 88.2 | 104 | 99.1 | 105 | 116
Mono-Mac-6 [27] | 91.7 | 102 | 99 | 92.9 | 92.7
NOMO-1 [28] | 96.3 | 97.7 | 98.5 | 99.6 | 93.1
SHI-1 [29] | 87 | 97.7 | 99 | 99.4 | 93.8
THP-1 [30] | 102 | 92.4 | 95.1 | 99.6 | 93.6
